Values quoted from earlier work, collected in publication PMC7238120, “Strong and Selective Inhibitory Effects of the Biflavonoid Selamariscina A against CYP2C8 and CYP2C9 Enzyme Activities in Human Liver Microsomes” (Pharmaceutics, 2020).
Like-named read-outs stand apart in the source and are kept apart here.

Assays:
CYP2C8 = molecular target: T1, CYP2C8 (Homo sapiens, UniProt P10632); details: cited from earlier work
T1 sequence (P10632 1-490): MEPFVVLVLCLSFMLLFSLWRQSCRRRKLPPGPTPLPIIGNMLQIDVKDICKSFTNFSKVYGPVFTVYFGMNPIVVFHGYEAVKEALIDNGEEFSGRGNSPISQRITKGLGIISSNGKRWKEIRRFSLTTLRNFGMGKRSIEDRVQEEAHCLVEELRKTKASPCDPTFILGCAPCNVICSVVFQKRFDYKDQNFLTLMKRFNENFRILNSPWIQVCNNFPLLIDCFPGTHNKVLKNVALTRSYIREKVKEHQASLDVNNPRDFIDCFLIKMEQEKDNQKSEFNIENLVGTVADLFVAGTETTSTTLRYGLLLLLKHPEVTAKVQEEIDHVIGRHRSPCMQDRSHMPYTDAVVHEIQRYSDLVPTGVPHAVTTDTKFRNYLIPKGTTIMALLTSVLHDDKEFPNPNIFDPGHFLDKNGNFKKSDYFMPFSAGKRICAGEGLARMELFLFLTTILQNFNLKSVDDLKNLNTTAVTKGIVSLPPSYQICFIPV

CYP2C9 = CYP2C9 (Homo sapiens, UniProt P11712); details: read-out: Ki, CYP2C9, known inhibitor; cited from earlier work
CYP2C9, sequence (P11712 whole entry): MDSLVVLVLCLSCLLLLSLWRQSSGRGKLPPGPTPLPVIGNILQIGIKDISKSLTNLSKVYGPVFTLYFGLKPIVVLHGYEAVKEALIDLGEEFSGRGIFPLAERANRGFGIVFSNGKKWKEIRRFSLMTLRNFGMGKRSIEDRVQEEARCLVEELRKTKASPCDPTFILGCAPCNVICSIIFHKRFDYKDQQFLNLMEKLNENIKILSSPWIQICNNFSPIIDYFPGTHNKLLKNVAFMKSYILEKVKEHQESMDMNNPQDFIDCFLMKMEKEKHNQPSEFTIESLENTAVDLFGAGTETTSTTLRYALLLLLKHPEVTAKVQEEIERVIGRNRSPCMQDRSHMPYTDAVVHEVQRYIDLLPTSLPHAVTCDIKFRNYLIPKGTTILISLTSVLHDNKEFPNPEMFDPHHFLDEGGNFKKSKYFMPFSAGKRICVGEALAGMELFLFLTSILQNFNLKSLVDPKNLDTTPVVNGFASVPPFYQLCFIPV

CYP3A4 = tested on: CYP3A4; parameters: method as in PMID 1602384; details: HLMs; cited from earlier work
CYP1A2 = molecular target: T2, CYP1A2 (Homo sapiens, UniProt P05177); parameters: method as in PMID 7483658; details: human liver microsomes; read-out: Ki, CYP1A2, competitive inhibition; cited from earlier work
T2 construct: incubation mixtures containing pooled human liver microsomes (HLMs, XTreme 200, XenoTech); tissue XenoTech XTreme 200; host or cells: pooled human liver microsomes
T2 sequence (P05177 1-516): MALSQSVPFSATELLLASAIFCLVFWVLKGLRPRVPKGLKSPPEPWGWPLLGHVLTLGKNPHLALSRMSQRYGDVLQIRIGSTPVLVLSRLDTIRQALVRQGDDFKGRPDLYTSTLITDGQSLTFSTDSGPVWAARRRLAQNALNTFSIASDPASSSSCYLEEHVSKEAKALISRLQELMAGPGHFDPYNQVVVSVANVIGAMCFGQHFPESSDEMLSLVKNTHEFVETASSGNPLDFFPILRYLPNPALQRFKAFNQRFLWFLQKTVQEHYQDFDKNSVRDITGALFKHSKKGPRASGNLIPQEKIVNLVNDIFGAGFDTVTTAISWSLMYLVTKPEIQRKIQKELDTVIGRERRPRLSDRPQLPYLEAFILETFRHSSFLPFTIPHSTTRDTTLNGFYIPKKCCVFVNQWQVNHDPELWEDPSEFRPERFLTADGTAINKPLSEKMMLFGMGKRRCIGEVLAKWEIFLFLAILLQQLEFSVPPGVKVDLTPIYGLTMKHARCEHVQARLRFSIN

UGT1A1 = molecular target: T3, UGT1A1 (Homo sapiens, UniProt P22309); parameters: method as in PMID 12386134; details: read-out: IC50, UGT1A1-mediated estradiol glucuronidation; cited from earlier work
T3 sequence (P22309 26-533): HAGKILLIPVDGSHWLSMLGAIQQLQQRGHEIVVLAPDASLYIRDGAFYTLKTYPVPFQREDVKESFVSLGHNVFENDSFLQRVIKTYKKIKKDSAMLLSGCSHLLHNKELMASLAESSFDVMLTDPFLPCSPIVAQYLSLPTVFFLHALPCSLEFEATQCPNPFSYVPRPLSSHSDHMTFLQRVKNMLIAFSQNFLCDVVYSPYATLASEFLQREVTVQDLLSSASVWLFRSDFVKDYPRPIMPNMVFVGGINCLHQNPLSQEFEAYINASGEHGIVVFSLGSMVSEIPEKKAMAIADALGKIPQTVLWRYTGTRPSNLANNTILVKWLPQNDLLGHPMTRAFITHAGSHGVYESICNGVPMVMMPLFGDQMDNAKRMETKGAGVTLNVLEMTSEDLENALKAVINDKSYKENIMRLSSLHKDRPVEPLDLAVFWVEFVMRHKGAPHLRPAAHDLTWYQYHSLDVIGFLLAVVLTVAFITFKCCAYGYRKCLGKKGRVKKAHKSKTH

[1] = read-out: Ki, CYP2C8, known inhibitor

CNC(=O)c1ccccc1Sc1ccc2c(/C=C/c3ccccn3)n[nH]c2c1 [axitinib]
Ki (CYP2C8; [1]): 170 nM

CCOC(=O)C1=C(C)NC(C)=C(C(=O)OC)C1c1cccc(Cl)c1Cl (stereo not shown) [felodipine]
IC50 (CYP2C8; read-out: IC50, CYP2C8, known inhibitor): 1200 nM

CNCCC(Oc1ccc(C(F)(F)F)cc1)c1ccccc1 (stereo not shown) [fluoxetine]
Ki (CYP2C9): 19000 to 87000 nM

COCCCC/C(=N\OCCN)c1ccc(C(F)(F)F)cc1 [fluvoxamine]
Ki (CYP2C9): 630 to 16000 nM

O=c1c(O)c(-c2ccc(O)cc2)oc2cc(O)cc(O)c12 [kaempferol]
Concentrations inhibiting metabolism of nifedipine and felodipine by CYP3A4 (CYP3A4): > 10 µM

Cc1cn(-c2cc(NC(=O)c3ccc(C)c(Nc4nccc(-c5cccnc5)n4)c3)cc(C(F)(F)F)c2)cn1 [nilotinib]
Ki (CYP2C8; [1]): 100 nM

O=c1c(O)c(-c2ccc(O)c(O)c2)oc2cc(O)cc(O)c12 [quercetin]
Concentrations inhibiting metabolism of nifedipine and felodipine by CYP3A4 (CYP3A4): > 10 µM

COc1ccc(-c2cc(=O)c3c(OC)c(OC)c(OC)c(OC)c3o2)cc1 [tangeretin]
Ki (CYP1A2): 68 nM
IC50 (UGT1A1): 1000 nM

COc1cc(C(=O)NS(=O)(=O)c2ccccc2C)ccc1Cc1cn(C)c2ccc(NC(=O)OC3CCCC3)cc12 [zafirlukast]
Ki (CYP2C8; read-out: Ki, CYP2C8, well-known inhibitor): 390 nM
